Source: patent publication US5648376A, “Immunosuppressant diterpene compound” (Pharmagenesis, Inc., priority 1995, dated 1997)

What was measured:
[1] = tested on: human peripheral blood lymphocytes (PBLs); experiment: Suppression of PBL proliferation in vitro (anti-CD3 X-35 stimulated, [3H] thymidine incorporation); format: cell-based; conditions: X-35 5 ng/ml; 72 hours; subglutinol between 1 and 20 μg/ml
Procedure: One measure of immunosuppression is suppression of stimulated proliferation of peripheral blood lymphocytes (PBLs) in vitro. In the assay detailed in Example 5, PBLs were activated in vitro by addition of anti-CD3 monoclonal antibody (X-35 antibody). Subglutinol or vehicle (control) was added to each culture, at selected concentrations. After 72 hours incubation, tritiated thymidine was added to the culture medium, and incorporation of tritium into DNA was assayed as a measure of DNA synthesis associated with cell proliferation.
This example examines the ability of subglutinol to suppress the proliferation of human peripheral blood lymphocytes (PBLs) when stimulated with X-35 (AMAC #0178), an anti-CD3 surface antigen antibody. Human PBLs were prepared using an established method (Boyum). Human blood buffy coat samples, approximately 25 ml/donor, were obtained from the Stanford University Medical Center Blood Bank. […] The cell pellets were suspended in 10 ml of X-Vivo tissue culture medium (BioWhittakar, Walkersville, Md) and counted using a hemocytometer. […]
Plates were incubated at 37° C. in a 7% CO2 incubator for 72 hours. […] Samples were counted in a liquid scintillation counter (1205 Betaplate, Pharmacia LKB Biotechnology). […]

[2] = tested on: IL-1 action on mouse thymocytes; experiment: Inhibition of IL-1 action on mouse thymocytes (proliferation, [3H] thymidine incorporation); format: cell-based; conditions: at about 0.2 μg/ml; rIL-1β 0.08 ng/ml plus PHA 10 μg/ml; 72 hours; range 0.012 to 0.76 μg/ml
Procedure: The ability of subglutinol to suppress the cell-proliferative effect of IL-1 in mouse thymocytes as an index of IL-1 action (O'Gara, 1990) was also examined. In this study, mouse thymocytes in culture were stimulated with IL-1 in the presence of phytohemagglutinin and increasing concentrations of subglutinol. The cells were cultured for 72 hours, and during the last four hours, incubated with tritiated thymidine. […] Details are given in Example 6.
Mouse thymocytes were prepared, and the action of IL-1, which stimulates thymocyte proliferation, was measured using standard techniques (O'Gara, 1990). Three to six week old C3H/HeN male mice (Simonson Laboratory, Gilroy, Calif.) were sacrificed by CO2 inhalation. Thymi were removed, separated from adherent non-thymic tissue, homogenized in Hank's balanced salt solution (HBSS, Gibco) using a glass homogenizer, and centrifuged at 200×g for 10 minutes at 15° C. Following an additional wash in HBSS, the thymocytes were resuspended in RPMI 1640 medium (Gibco) containing 50 μM 2-mercaptoethanol, 2 mM glutamine, 1 mM sodium pyruvate, non-essential amino acids 100 U/ml penicillin, 100 μg/ml streptomycin and 10% heat-inactivated fetal bovine serum. […]
Subglutinol was added, 25 μl per well, to obtain final concentrations of subglutinol between 0.001 and 0.78 μg/ml. […] Cells were harvested and counted as above. […]

[3] = Evaluation of potential toxicity (MTT assay); format: cell-based; conditions: human, pbls, 21 hours plus 3 hours MTT
Procedure: Potential toxicity of the mixture was assessed by measurement the effect of subglutinol on the ability of cultured cells to reduce MTT (3-[4,5-Dimethylthiazol-2-yl]-2,5-diphenyltetrazolium bromide), an index of cellular respiration that is more sensitive in the detection of cytotoxicity than methods involving measurement of DNA replication (Green, 1984).
Potential cytotoxicities of test samples were assessed by measuring the effect of subglutinol on the reduction of MTT (3-[4,5-Dimethylthiazole-2-yl]-2,5-diphenyl-tetrazolium bromide) by cultured cells. MTT, a yellow-colored compound, is reduced by mitochondrial enzymes to form a purple crystalline reduction product, formazane, providing an index of cellular respiration as well as a sensitive assay for cytotoxicity (Green, 1984).
Cytotoxicity was assessed in cultured human PBLs. A stock solution of MTT (Sigma, St. Louis, Mo.), 5 mg/ml phosphate buffered saline, pH 7.4, was prepared and stored in the dark at 4° C. PBLs were cultured with various concentrations of test samples in flat-bottom 96 well tissue culture plate (Costar #3595) using the same conditions as in Example 5 above, except that X-35 was replaced with the appropriate medium.
Untreated cells in medium alone were used as controls in each experiment. Following 21 hours of incubation of cells, 25 μl of MTT solution was added to each well. After an additional three hour incubation, the experiment was terminated by adding a solution of 10% sodium dodecyl sulfate in 0.01 N HCl.
Following overnight incubation at 37° C. (to solubilize the formazane crystals), optical density was determined at 570-650 nm in a microplate reader (Thermo max, Molecular Devices, Calif.). Data are expressed as % cytotoxicity. Subglutinol concentrations of 0.03, 0.1, and 0.3 μg/ml gave % cytotoxicity values of 0, 20, and 28%, respectively.

[4] = tested on: proliferation of lymphocytes in a mixed lymphocyte reaction; experiment: Murine mixed lymphocyte reaction (MLR); format: cell-based, mouse; conditions: at 0.1 μg/ml; C57Bl/6 responder, irradiated Balb/C stimulator spleen cells; 4 days
Procedure: A measure of immunosuppression that serves as a model for transplantation rejection is inhibition of cell proliferation in a mixed lymphocyte reaction (MLR) assay (Bradley, in Mishell, 1980). In these experiments, an MLR is induced by co-incubating responder (R) cells from one mouse strain (C57B1/6) with stimulator (S) cells from another mouse strain (Balb/C).
The responder cells proliferate in the presence of the allogenic stimulator cells. The stimulator cells are irradiated so they are unable to proliferate. After 72 hours incubation, tritiated thymidine is added to the mixed cell cultures, and incorporation of the labeled nucleotide into DNA is assayed as an index of cell proliferation.
In the MLR test reported in Example 7, responder cells were co-cultured in microtitre wells with stimulator cells, in the presence of selected concentrations of subglutinol between 0.01 and 0.3 μg/ml. The wells receiving no subglutinol would be expected to be maximally stimulated. The cells were cultured for 4 days, and labeled with [^3 H] thymidine during the last 18 hours of incubation. […]
Several controls were conducted in the MLR assay. […] The spontaneous proliferation of R was also measured. […] Cells were harvested and counted as above. […]

## C=C1CCC2C3(C)CC(C=C(C)C)OC3CCC2(C)C1Cc1c(O)c(C)c(C)oc1=O (stereo not drawn) [subglutinol]
[1]
  percent suppression of proliferation of anti-CD3 stimulated PBLs (FIG. 10): dose-dependent suppression
[2]
  inhibition of IL-1 action on thymocytes (FIG. 11): Nearly complete inhibition
[3]; 0.03 μg/ml
  cytotoxicity at 24 h: 0%
[3]; 0.1 μg/ml
  cytotoxicity at 24 h: 20%
[3]; 0.3 μg/ml
  cytotoxicity at 24 h: 28%
[4]
  percent inhibition of stimulation in MLR (FIG. 12): Nearly complete inhibition
